- melting point: 110 to 120 °C
Compound: CN1CCN(c2ccccc2CCNC(=O)c2ccc(Cl)c(Cl)c2)CC1.Cl.O (hydrate or solvate)
